Measured values as given in patent EP3521435A1, “A HIGH STRINGENCY SELECTION SYSTEM FOR PROTEIN EXPRESSION IN PROLINE-AUXOTROPHIC CELLS” (Bayer AG, priority 2018, dated 2019).
Like-named read-outs stand apart in the source and are kept apart here.

Tested on: CHO-S cells
Method: CHO-S cells (Thermo Fisher Scientific, A1155701) were passaged according to the manufacturer's recommendations at 37 °C and 5% CO2 in CD-CHO medium (Thermo Fisher Scientific , 10743029) containing 8 mM GlutaMAX. […] Viable cell densities and viabilities were recorded daily.

[1] = Day 1, Proline-free Medium + 0,5mM L-Prolin
[2] = Day 1, Proline-free Medium + 0,25mM L-Prolin
[3] = Day 1, Proline-free Medium + 1,0mM L-Prolin
[4] = Day 1, Proline-free Medium + 2,5mM L-Prolin
[5] = Day 2, Proline-free Medium + 0,5mM L-Prolin
[6] = Day 2, Proline-free Medium + 0,25mM L-Prolin
[7] = Day 2, Proline-free Medium + 1,0mM L-Prolin
[8] = Day 2, Proline-free Medium + 2,5mM L-Prolin
[9] = Day 3, Proline-free Medium + 0,5mM L-Prolin
[10] = Day 3, Proline-free Medium + 0,25mM L-Prolin
[11] = Day 3, Proline-free Medium + 1,0mM L-Prolin
[12] = Day 3, Proline-free Medium + 2,5mM L-Prolin
[13] = Day 6, Proline-free Medium + 0,5mM L-Prolin
[14] = Day 6, Proline-free Medium + 0,25mM L-Prolin
[15] = Day 6, Proline-free Medium + 1,0mM L-Prolin
[16] = Day 6, Proline-free Medium + 2,5mM L-Prolin

O=C(O)[C@@H]1CCCN1 [L-Prolin, L-Proline]
Viability [1]: 98,2 | Viable Cell Conc. [1]: 3,7E+05 | Viability [2]: 95,6 | Viable Cell Conc. [2]: 3,5E+05 | Viability [3]: 100,0 | Viable Cell Conc. [3]: 3,6E+05 | Viability [4]: 99,3 | Viable Cell Conc. [4]: 3,3E+05 | Viability [5]: 99,7 | Viable Cell Conc. [5]: 6,3E+05 | Viability [6]: 98,1 | Viable Cell Conc. [6]: 5,7E+05 | Viability [7]: 99,7 | Viable Cell Conc. [7]: 5,6E+05 | Viability [8]: 97,5 | Viable Cell Conc. [8]: 4,9E+05 | Viability [9]: 99,5 | Viable Cell Conc. [9]: 1,2E+06 | Viability [10]: 99,6 | Viable Cell Conc. [10]: 9,1E+05 | Viability [11]: 99,2 | Viable Cell Conc. [11]: 1,1E+06 | Viability [12]: 99,8 | Viable Cell Conc. [12]: 1,1E+06 | Viability [13]: 99,9 | Viable Cell Conc. [13]: 3,8E+06 | Viability [14]: 98,2 | Viable Cell Conc. [14]: 1,3E+06 | Viability [15]: 99,5 | Viable Cell Conc. [15]: 6,6E+06 | Viability [16]: 99,7 | Viable Cell Conc. [16]: 6,3E+06
